Here are results for 11 compounds from patent publication US5175283A, “Azetidin-2-one derivatives as serine protease inhibitors” (Bristol-Myers Squibb Company, priority 1992, dated 1992).

Structures are written as SMILES. Structures can show the parent of a compound that is named as a salt. Where two headings read alike, the source gives them in different places.

What all share (assay type): biochemical
Assay [1] has as its target T1, bovine pancreatic trypsin (Bos taurus, UniProt P00760).
T1 construct: purified bovine pancreatic trypsin dissolved in trypsin assay buffer
T1 sequence (P00760 24-246): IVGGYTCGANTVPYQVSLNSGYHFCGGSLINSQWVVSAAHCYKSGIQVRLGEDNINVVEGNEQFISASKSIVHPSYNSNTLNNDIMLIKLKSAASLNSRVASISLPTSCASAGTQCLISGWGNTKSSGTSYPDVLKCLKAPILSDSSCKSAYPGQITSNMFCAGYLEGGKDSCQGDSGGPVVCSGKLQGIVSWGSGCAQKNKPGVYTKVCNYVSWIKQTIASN
The assay can be described thus: Enzyme assay for the inhibition of trypsin (Z-Val-Gly-Arg-pNA substrate). On the procedure: 2. Enzyme Assays for the Inhibition of Trypsin
The following reagents were used in these assays:
Trypsin assay buffer: 2 mM CaCl2, 50 mM Tris/Cl pH 8.0.
3 mM Z-Val-Gly-Arg-pNA (Chromzyme TRy) dissolved in H2 O.
6 μg/ml of purified bovine pancreatic trypsin dissolved in trypsin assay buffer.
Inhibitors to be tested were dissolved in H2 O, methanol or DMSO just prior to use.
To each well in a 96-well microtiter plate, 270 μl of assay buffer was added. Bovine trypsin (10 μl of 6 μg/ml) was added. Inhibitor (10 μl ) was added, mixed, and then incubated at room temperature for 3 min. The enzymic reaction was started with 10 μl of 3 mM Z-Val-Gly-Arg-pNA substrate. The change in optical density was measured at 405 nm at room temperature. A kinetic microplate reader (Molecular Devices Corporation Vmax) was used to measure the change in optical density over time.
Results are reported in Table 1 as IC50 values, i.e., the drug concentration in mole/liter which caused 50% inhibition of the enzyme activity (after incubation of the drug with the enzyme for 3 min).

For assay [2], the target named is T2, human α-thrombin (Homo sapiens, UniProt P00734).
T2 construct: purified human α-thrombin dissolved in thrombin assay buffer
The assay can be described thus: Concentration required for doubling thrombin clotting time in human plasma. Conditions: human citrated plasma, 10 U/ml human thrombin; read-out: ED50, drug concentration required to double clotting time. The protocol: Procedure for Determining the Concentration Required for Doubling Thrombin Clotting Time--Clotting Time Assays The following reagents were used in these assays: Owren's Veronal Buffer: 125 mM NaCl, 28.4 mM sodium barbital, pH 7.35. Human citrated plasma obtained from human volunteers or citrated plasma obtained from IP-dosed animals (prepared as described below). 10 NIH Units/ml human α-thrombin in thrombin buffer for use with human plasma. […] The blood was centrifuged at […] (480×g) for 15 min at room temperature (using a Sorvall RT 6000B centrifuge). The plasma was removed, pooled, and aliquoted into small tubes which were stored frozen for later use. Clotting Time Measurement Clotting times were determined by pipetting 0.1 ml of Owren's buffer (pre-warmed 37° C.) and 0.1 ml of human or rat plasma into yellow sample cuvettes. For studies with human plasma 10 U/ml human thrombin (10 ml) was placed in the reservoir assembly station of the MLA 700. (Medical Laboratory Automation, Electra 700 Reservoir Assembly). For rat studies, the human thrombin concentration was 25 U/ml. The cuvettes were vortexed and then placed on the MLA 700 sample wheel. The coagulation timer (MLA 700) automatically dispenses 0.1 ml human thrombin into the sample in each cuvette. Detection of the fibrin clot was determined optically by the MLA 700. Studies were performed to determine the concentration of drug which caused a doubling of the clotting time in human plasma. From standard curves of thrombin activity added to the sample versus the clotting time, the concentration of drug which caused a doubling of the thrombin clotting time corresponded to inhibition of approximately 1/2 of the added thrombin clotting activity. Results are reported in Table 1 as ED50 values, i.e., the drug concentration required to double clotting time.

Assay [3] deals with T2, human α-thrombin. The assay can be described thus: Enzyme assay for the inhibition of thrombin (s-2238 substrate). Conditions: for IC50: 3 min incubation of drug with enzyme, room temperature; for Thrombin k2 /ki (second order rate constant for inactivation of the enzyme): human α-thrombin, s-2238, pH 7.4, room temperature. On the procedure: 1. Enzyme Assays for the Inhibition of Thrombin The following reagents were used in these assays: Thrombin assay buffer: 145 mM NaCl, 5 mM KCl, 30 mM N-2-hydroxyethyl piperazine-N'-2-ethanesulfonic acid, pH 7.4, 1 mg/ml polyethylene glycol (PEG-8000). 3 mM D-Phe-Pip-Arg-p-nitroanilide (s-2238) in H2 O. 3 U/ml purified human α-thrombin dissolved in thrombin assay buffer. Inhibitors to be tested were dissolved in H2 O, methanol, or DMSO just prior to use. Assay Procedure To each well in a 96-well microtiter plate, 270 μl of assay buffer was added. Human α-thrombin (10 μl of 3 U/ml) was added, then 10 μl of inhibitor were added and mixed. The samples were incubated at room temperature for a defined period of time (3 min for initial IC50 determinations). The enzymic reaction was started with 10 μl of 3 mM s-2238 substrate and continued at room temperature. The change in optical density was measured at 405 nm. A kinetic microplate reader (Molecular Devices Corporation Vmax) was used to measure the change in optical density over time. Results are reported in Table 1 as IC50 values, i.e., the drug concentration in mole/liter which caused 50% inhibition of the enzyme activity (after incubation of the drug with the enzyme for 3 min). Alternatively, results are also reported in Table 1 expressed as k2 /ki which is the second order rate constant in per mole per minute for inactivation time of the enzyme [Kitz, et al., J. Biol. Chem., 237, 3245 (1962)].

The mark [4] stands for this setting: 3 min incubation of drug with enzyme, room temperature, pH 8.0, read-out: Trypsin IC50.

As a reminder, the IC50 is the concentration needed to halve the response being measured. As for `COC(=O)[C@H]1[C@H](CCCNC(=N)N)C(=O)N1C(=O)Nc1ccccc1` (relative stereo) [V, trans-4-Methoxycarbonyl-3-(3-quanidinopropyl)-1-phenylaminocarbonyl-2-azetidinone hydrochloride salt], in assay [1] (setting [4]), the IC50 is 5 nM. For the same compound, the IC (2-fold clotting time) at human α-thrombin [2] is 30 µM. For the same compound, on human α-thrombin [3], the IC50 amounted to 1700 nM and the “Thrombin k2 /ki (second order rate constant for inactivation of the enzyme)” value (“Thrombin k2 /ki” for short) is listed as 8.3 × 10^4 m^-1 min^-1.
In turn, `CC(=O)OC1C(CCCNC(=N)N)C(=O)N1C(C)=O` (stereo not shown) [XX, 4-Acetyloxy-3-quanidinopropyl-1-acetyl-2-azetidinone hydrochloride salt] returned an IC50 in assay [1] of 12 nM. For the same compound, the IC (2-fold clotting time) at human α-thrombin [2] is recorded as 0.34 µM. On human α-thrombin [3], the IC50 was 12 nM and the “Thrombin k2 /ki” value was 4.2 × 10^7 m^-1 min^-1.
As for `Cc1ccc(S(=O)(=O)N2C(=O)[C@@H](CCCNC(=N)N)[C@@H]2C(=O)N2CCCCC2)cc1` (relative stereo) [XIII, trans-4-(1-Piperidinocarbonyl)-3-guanidinooropyl-1-p-toluenesulfonyl-2-azetidinone hydrochloride salt], the IC50 in assay [1] (setting [4]) came to 120 nM. Moreover, on human α-thrombin [2], the IC (2-fold clotting time) is reported as 80 µM. On human α-thrombin [3], the IC50 stood at 3 nM and the “Thrombin k2 /ki” value was 4.5 × 10^7 m^-1 min^-1.
`CC(=O)N1C(=O)[C@@H](CCCNC(=N)N)[C@@H]1C(=O)Nc1ccc(C)cc1` (relative stereo) [XVI, trans-4-(4-Methylbenzeneaminocarbonyl)-3-guanidinopropyl-1-acetyl-2-azetidinone hydrochloride salt]: the IC50 in assay [1] (setting [4]) stood at 120 nM. Also, the IC (2-fold clotting time) on human α-thrombin [2] was 0.5 µM. Also, at human α-thrombin [3], the IC50 came to 25 nM and the “Thrombin k2 /ki” value is 1.3 × 10^6 m^-1 min^-1.
As for `COC(=O)[C@H]1[C@H](CCCNC(=N)N)C(=O)N1S(=O)(=O)c1ccc(C)cc1.Cl` (relative stereo) [I, trans-4-Methoxycarbonyl-3-(3-guanidinopropyl)-1-p-toluenesulfonyl-2-azetidinone hydrochloride salt], the IC50 in assay [1] (setting [4]) was 8 nM; on human α-thrombin [3] it was 2 to 9 nM. The IC (2-fold clotting time) on human α-thrombin [2] was found to be 65 µM. In addition, the “Thrombin k2 /ki” value at human α-thrombin [3] is reported as 1.2 × 10^8 m^-1 min^-1.
On to `CC(=O)N1C(=O)[C@@H](CCCNC(=N)N)[C@@H]1S(=O)(=O)c1ccccc1` (relative stereo) [VI, trans-4-Phenylsulfonyl-3-guanidinopropyl-1-acetyl-2-azetidine hydrochloride salt], for which the IC50 in assay [1] (setting [4]) is 750 nM. Also, the IC (2-fold clotting time) on human α-thrombin [2] was determined as 15 µM. For the same compound, on human α-thrombin [3], the IC50 was found to be 3.2 nM and the “Thrombin k2 /ki” value was 3.0 × 10^6 m^-1 min^-1.
As to `CC(=O)N1C(=O)[C@@H](CCCNC(=N)N)[C@@H]1CCc1ccccc1` (relative stereo) [XV, trans-4-(2-Phenylethyl)-3-guanidinooropyl-1-acetyl-2azetidinone hydrochloride salt], in assay [1] (setting [4]), the IC50 is 470 nM. Further, the IC (2-fold clotting time) on human α-thrombin [2] is 3 µM. On human α-thrombin [3], the IC50 worked out at 210 nM and the “Thrombin k2 /ki” value is listed as 1.5 × 10^6 m^-1 min^-1.
The matching figures for `CCS[C@H]1[C@H](CCCNC(=N)N)C(=O)N1C(C)=O` (relative stereo) [VII, trans-4-Ethylthio-3-quanidinopropyl-1-acetyl-2-azetidinone hydrochloride salt]: 36 nM, 0.75 µM, 12.5 nM and 5.6 × 10^6 m^-1 min^-1.
With `COC(=O)[C@H]1[C@H](CCCNC(=N)N)C(=O)N1C(C)=O` (relative stereo) [II, trans-4-Methoxycarbonyl-3-[3-quanidinopropyl)-1-acetyl-2-azetidinone hydrochloride salt], in assay [1] (setting [4]), the IC50 came out at 40 nM. Also, the IC (2-fold clotting time) at human α-thrombin [2] is 1.25 µM. In addition, at human α-thrombin [3], the IC50 was 2 nM and the “Thrombin k2 /ki” value is given as 1.9 × 10^7 m^-1 min^-1.
On to `CC(=O)N1C(=O)[C@@H](CCCNC(=N)N)[C@@H]1C(=O)O` (relative stereo) [XIV, trans-4-Carboxy-3-quanidinopropyl-1-acetyl-2-azetidinone hydrochloride salt], for which the IC50 in assay [1] (setting [4]) amounted to 12 nM; against human α-thrombin [3] it was 390 nM. Moreover, on human α-thrombin [2], the IC (2-fold clotting time) is 12 µM.
`COC(=O)[C@H]1[C@H](CCCNC(=N)N)C(=O)N1S(=O)(=O)c1cccc2c(N(C)C)cccc12` (relative stereo) [III, trans-4-Methoxycarbonyl-3-(3-guanidinopropyl)-1-[(5-dimethylamino)-1-naphthalenesulfonyl]-2-azetidinone hydrochloride salt]: the IC50 in assay [1] (setting [4]) is 720 nM. Further, on human α-thrombin [2], the IC (2-fold clotting time) was found to be 50 µM. Moreover, on human α-thrombin [3], the IC50 worked out at 16 nM and the “Thrombin k2 /ki” value is 2.1 × 10^7 m^-1 min^-1.
